Test system: 327498-153-R-J2-PDC complex spheroid growth, % test/control
Experiment: Anticancer human tumor 327498-153-R-J2-PDC patient-derived uterine carcinosarcoma cell line growth inhibition [Asc]
Settings: for IC50: curve of first compound; for viability, T/C: stronger effect = lower value
In short: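 Concentration series start at each agent's clinical Cmax, or at 10 microM when none is established, and drop in half-log steps; agents are applied alone or together to complex spheroids built with HUVEC and hMSC.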

[1] = second compound 0.03 µM, first compound 0.0316 µM
[2] = second compound 0.03 µM, first compound 0.1 µM
[3] = second compound 0.03 µM, first compound 0.316 µM
[4] = second compound 0.03 µM, first compound 1 µM
[5] = second compound 0.03 µM, first compound 3.16 µM
[6] = second compound 0.03 µM, first compound 10 µM
[7] = second compound 0.0949 µM, first compound 0.0316 µM
[8] = second compound 0.0949 µM, first compound 0.1 µM
[9] = second compound 0.0949 µM, first compound 0.316 µM
[10] = second compound 0.0949 µM, first compound 1 µM
[11] = second compound 0.0949 µM, first compound 3.16 µM
[12] = second compound 0.0949 µM, first compound 10 µM
[13] = second compound 0.3 µM, first compound 0.0316 µM
[14] = second compound 0.3 µM, first compound 0.1 µM
[15] = second compound 0.3 µM, first compound 0.316 µM
[16] = second compound 0.3 µM, first compound 1 µM
[17] = second compound 0.3 µM, first compound 3.16 µM
[18] = second compound 0.3 µM, first compound 10 µM
[19] = second compound 0.949 µM, first compound 0.0316 µM
[20] = second compound 0.949 µM, first compound 0.1 µM
[21] = second compound 0.949 µM, first compound 0.316 µM
[22] = second compound 0.949 µM, first compound 1 µM
[23] = second compound 0.949 µM, first compound 3.16 µM
[24] = second compound 0.949 µM, first compound 10 µM
[25] = second compound 3 µM, first compound 0.0316 µM
[26] = second compound 3 µM, first compound 0.1 µM
[27] = second compound 3 µM, first compound 0.316 µM
[28] = second compound 3 µM, first compound 1 µM
[29] = second compound 3 µM, first compound 3.16 µM
[30] = second compound 3 µM, first compound 10 µM
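Note: spheroids exposed to compound for 7 days after 3 days of growth.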
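Throughout, for viability, T/C: 100% = DMSO vehicle control wells.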

SMILES	IC50 (second compound 0.03 µM) [nM]	IC50 (second compound 0.0949 µM) [nM]	IC50 (second compound 0.3 µM) [nM]	IC50 (second compound 0.949 µM) [nM]	IC50 (second compound 3 µM) [nM]	viability, T/C [1] [%]	viability, T/C [2] [%]	viability, T/C [3] [%]	viability, T/C [4] [%]	viability, T/C [7] [%]	viability, T/C [8] [%]	viability, T/C [9] [%]	viability, T/C [10] [%]	viability, T/C [13] [%]	viability, T/C [14] [%]	viability, T/C [15] [%]	viability, T/C [16] [%]	viability, T/C [19] [%]	viability, T/C [20] [%]	viability, T/C [21] [%]	further results
C#Cc1c(F)ccc2cc(O)cc(-c3ncc4c(N5CC6CCC(C5)N6)nc(OCC56CCCN5CC(F)C6)nc4c3F)c12 (stereo not given) + CCN1C(C(=O)NC23CCC(C(=O)O)(CC2)CC3)C(c2cccc(Cl)c2F)C2(C(=O)Nc3cc(Cl)ccc32)C12CCCCC2	2930	709	< 31.6	< 31.6	< 31.6	87.3	94.4	83.2	61.2	77.4	74.7	61.6	43	33.5	36.1	24.3	15.7	10.2	9.47	4.8	viability, T/C [5]: 54%; viability, T/C [6]: 39.4%; viability, T/C [11]: 37%; viability, T/C [12]: 26.8%; viability, T/C [17]: 14.4%; viability, T/C [18]: 7.22%; viability, T/C [22]: 4.74%; viability, T/C [23]: 4.43%; viability, T/C [24]: 1.84%; viability, T/C [25]: 2.16%; viability, T/C [26]: 1.97%; viability, T/C [27]: 2.08%; viability, T/C [28]: 1.55%; viability, T/C [29]: 1.14%; viability, T/C [30]: 0.73%
C=C(F)C(=O)N1CCN(c2nc(OCC3CCCN3C)nc3c2CCN(c2cccc4cccc(Cl)c24)C3)CC1CC#N (stereo not given) + CCN1C(C(=O)NC23CCC(C(=O)O)(CC2)CC3)C(c2cccc(Cl)c2F)C2(C(=O)Nc3cc(Cl)ccc32)C12CCCCC2	552	< 31.6	< 31.6	< 31.6	< 31.6	56.4	55.3	59.8	42.5	49.1	38.6	38.5	25.4	23.3	18.5	12.5	10.9	6.62	5.04	5.41	viability, T/C [5]: 6.79%; viability, T/C [6]: 0.13%; viability, T/C [11]: 0.52%; viability, T/C [12]: 0.11%; viability, T/C [17]: 0.07%; viability, T/C [18]: 0.11%; viability, T/C [22]: 1.84%; viability, T/C [23]: 0.03%; viability, T/C [24]: 0.12%; viability, T/C [25]: 1.83%; viability, T/C [26]: 2.77%; viability, T/C [27]: 1.2%; viability, T/C [28]: 0.65%; viability, T/C [29]: 0.14%; viability, T/C [30]: 1.2%
C=CC(=O)N1CCN(c2nc(=O)n(-c3c(C)ccnc3C(C)C)c3nc(-c4c(O)cccc4F)c(F)cc23)C(C)C1 (stereo not given) + CCN1C(C(=O)NC23CCC(C(=O)O)(CC2)CC3)C(c2cccc(Cl)c2F)C2(C(=O)Nc3cc(Cl)ccc32)C12CCCCC2	> 10000	< 31.6	< 31.6	< 31.6	< 31.6	80.2	66.8	61.3	61	48.1	43.3	39.1	40.8	25.8	22.3	21.1	13.9	6.85	10.2	5.74	viability, T/C [5]: 60.4%; viability, T/C [6]: 47.7%; viability, T/C [11]: 31%; viability, T/C [12]: 23.5%; viability, T/C [17]: 15.8%; viability, T/C [18]: 10.9%; viability, T/C [22]: 6.83%; viability, T/C [23]: 5.12%; viability, T/C [24]: 4.58%; viability, T/C [25]: 2.47%; viability, T/C [26]: 2.14%; viability, T/C [27]: 2.66%; viability, T/C [28]: 2.75%; viability, T/C [29]: 3.23%; viability, T/C [30]: 2.77%
CNC(C)C(=O)NC1CN(S(=O)(=O)c2cccc(S(=O)(=O)N3CCC4CCC(C(=O)NC(c5ccccc5)c5ccccc5)N4C(=O)C(NC(=O)C(C)NC)C3)c2)CCC2CCC(C(=O)NC(c3ccccc3)c3ccccc3)N2C1=O (stereo not given) + CCN1C(C(=O)NC23CCC(C(=O)O)(CC2)CC3)C(c2cccc(Cl)c2F)C2(C(=O)Nc3cc(Cl)ccc32)C12CCCCC2	> 1000	> 1000	< 3.16	< 3.16	< 3.16	85.6	91.7	89.2	73.3	63.5	65.8	65.4	60.4	35.1	24.6	35.6	30.3	5.92	4.78	6.7	viability, T/C (second compound 0.03 µM, first compound 0.00316 µM): 92.8%; viability, T/C (second compound 0.03 µM, first compound 0.01 µM): 84.1%; viability, T/C (second compound 0.0949 µM, first compound 0.00316 µM): 86.3%; viability, T/C (second compound 0.0949 µM, first compound 0.01 µM): 70.2%; viability, T/C (second compound 0.3 µM, first compound 0.00316 µM): 41.7%; viability, T/C (second compound 0.3 µM, first compound 0.01 µM): 36.5%; viability, T/C (second compound 0.949 µM, first compound 0.00316 µM): 13.8%; viability, T/C (second compound 0.949 µM, first compound 0.01 µM): 9.3%; viability, T/C [22]: 8.64%; viability, T/C (second compound 3 µM, first compound 0.00316 µM): 3.86%; viability, T/C (second compound 3 µM, first compound 0.01 µM): 2.08%; viability, T/C [25]: 2.54%; viability, T/C [26]: 1.28%; viability, T/C [27]: 2.31%; viability, T/C [28]: 1.12%
